Test results reported in patent publication EP0354323A2, “Antidiabetic phosphates” (AMERICAN CYANAMID COMPANY, priority 1988, dated 1990).
Counter-ions that a name gives are not always drawn. Like-named read-outs stand apart in the source and are kept apart here.

Tests used:
Type in all cases: biochemical
[1] = target: T1, purified rat liver 6-phosphofructo-1-kinase (Rattus norvegicus, UniProt P30835); assay: Stimulation of 6-phosphofructo-1-kinase (PFK), aldolase-coupled spectrophotometric assay; conditions: stimulation of enzyme; pH 7.3, 30°C, 1 mM ATP, reaction initiated with 0.2 mM fructose-6-phosphate; read-out: PFK ED₅₀
T1 construct: 0.1U of purified rat liver 6-phosphofructo-1-kinase; from tissue; host or cells: rat liver
T1 sequence (P30835 2-780 limits assumed): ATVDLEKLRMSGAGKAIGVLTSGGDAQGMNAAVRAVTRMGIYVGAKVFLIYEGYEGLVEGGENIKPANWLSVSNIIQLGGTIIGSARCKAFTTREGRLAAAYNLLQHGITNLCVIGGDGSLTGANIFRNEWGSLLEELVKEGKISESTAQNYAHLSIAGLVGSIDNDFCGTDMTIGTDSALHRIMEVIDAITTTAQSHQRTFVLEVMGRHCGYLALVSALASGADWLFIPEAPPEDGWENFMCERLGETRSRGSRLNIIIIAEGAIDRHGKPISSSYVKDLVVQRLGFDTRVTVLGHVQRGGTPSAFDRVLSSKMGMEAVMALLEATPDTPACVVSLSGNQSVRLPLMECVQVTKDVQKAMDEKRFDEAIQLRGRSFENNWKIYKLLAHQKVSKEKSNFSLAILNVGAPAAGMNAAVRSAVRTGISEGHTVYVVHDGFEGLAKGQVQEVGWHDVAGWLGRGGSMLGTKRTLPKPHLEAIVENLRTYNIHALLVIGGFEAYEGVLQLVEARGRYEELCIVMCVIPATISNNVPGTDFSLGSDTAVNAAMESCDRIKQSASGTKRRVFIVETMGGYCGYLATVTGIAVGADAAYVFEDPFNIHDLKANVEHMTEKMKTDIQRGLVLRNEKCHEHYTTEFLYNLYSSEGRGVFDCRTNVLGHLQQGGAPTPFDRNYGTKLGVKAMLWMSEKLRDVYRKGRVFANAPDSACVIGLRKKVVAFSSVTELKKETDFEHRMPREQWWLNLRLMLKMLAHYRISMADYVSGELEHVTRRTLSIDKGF
Description: (§1) The novel compounds of this invention were tested for their ability to stimulate the enzyme 6-phosphofructo-1-kinase ("PFK") and for their ability to inhibit the enzyme fructose-1,6-bisphosphatase ("FBP") using the procedures described below.
Effects on the activity of PFK were determined using an aldolase-coupled, spectrophotometric assay. The assay mixture contained: 50 mM N-tris(hydroxymethyl)methyl-2-aminoethanesulfonic acid, hydrochloride ("TES-HCl", pH 7.3); 1mM ethylenediaminetetraacetic acid ("EDTA"); 6 mM magnesium chloride; 2.5 mM dithiothreitol; 0.165 mM nicotinamide adenine dinucleotide ("NADH"); 1mM adenosine triphosphate ("ATP"); 0.04U aldolase; 0.4U triose phosphate isomerase; 1.5U alpha-glycerolphosphate dehydrogenase; 0.1U of purified rat liver 6-phosphofructo-1-kinase; and various concentrations of the test compound, all in a final volume of 1 ml. The mixture was preincubated for 3 minutes at 30°C and then the reaction was initiated with 0.2 mM fructose-6-phosphate. The rate of decrease in absorbance at 340 nm was measured at 30°C with a recording spectrophotometer.

purified rat liver FBP = target: T2, purified rat liver FBP (Rattus norvegicus, UniProt P19112); assay: Inhibition of fructose-1,6-bisphosphatase (FBP), spectrophotometric assay
T2 construct: 0.02U of purified rat liver FBP; from tissue; host or cells: rat liver
T2 sequence (P19112 2-363 limits assumed): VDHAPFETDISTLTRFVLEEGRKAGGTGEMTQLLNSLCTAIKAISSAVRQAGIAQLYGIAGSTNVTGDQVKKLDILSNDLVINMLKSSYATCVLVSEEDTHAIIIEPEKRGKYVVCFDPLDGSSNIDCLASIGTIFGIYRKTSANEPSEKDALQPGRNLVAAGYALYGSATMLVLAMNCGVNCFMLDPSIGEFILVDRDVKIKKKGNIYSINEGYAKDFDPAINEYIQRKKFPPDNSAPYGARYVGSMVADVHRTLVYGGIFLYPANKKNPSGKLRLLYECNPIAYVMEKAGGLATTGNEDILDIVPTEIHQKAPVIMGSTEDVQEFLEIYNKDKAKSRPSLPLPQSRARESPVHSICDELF
Description: as §1
Effects on the activity of FBP were determined using a spectrophotometric assay. The assay mixture contained: 100 mM tris(hydroxymethyl)aminomethane, hydrochloride ("TRIS-HCl", pH 7.4); 2.5 mM beta-mercaptoethanol; 2 mM magnesium chloride; 0.05 mM EDTA; 0.2 mM nicotinamide adenine dinucleotide phosphate ("NADP"); 10 U phosphoglucose isomerase; 5 U glucose-6-phosphate dehydrogenase; 0.02U of purified rat liver FBP; and various concentrations of the test compound, all in a final volume of 1 ml. The mixture was preincubated for 3 minutes at 30°C and then the reaction was initiated with 0.02 mM fructose-1,6-bisphosphate. The rate of increase in absorbance at 340 nm was measured at 30°C with a recording spectrophotometer.

[2] = target: T3, partially purified potato tuber 6-phosphofructo-1-kinase (Solanum tuberosum, UniProt P21342+P21343); assay: Stimulation of pyrophosphate-dependent 6-phosphofructo-1-kinase (PPi-PFK), aldolase-coupled spectrophotometric assay; conditions: stimulation of enzyme; pH 8.0, 30°C, 1 mM fructose-6-phosphate, reaction initiated with 0.5 mM sodium pyrophosphate; read-out: PPi-PFK ED₅₀
T3 construct: 0.1U of partially purified potato tuber; from tissue; host or cells: potato tuber
T3 sequence (P21343 1-569): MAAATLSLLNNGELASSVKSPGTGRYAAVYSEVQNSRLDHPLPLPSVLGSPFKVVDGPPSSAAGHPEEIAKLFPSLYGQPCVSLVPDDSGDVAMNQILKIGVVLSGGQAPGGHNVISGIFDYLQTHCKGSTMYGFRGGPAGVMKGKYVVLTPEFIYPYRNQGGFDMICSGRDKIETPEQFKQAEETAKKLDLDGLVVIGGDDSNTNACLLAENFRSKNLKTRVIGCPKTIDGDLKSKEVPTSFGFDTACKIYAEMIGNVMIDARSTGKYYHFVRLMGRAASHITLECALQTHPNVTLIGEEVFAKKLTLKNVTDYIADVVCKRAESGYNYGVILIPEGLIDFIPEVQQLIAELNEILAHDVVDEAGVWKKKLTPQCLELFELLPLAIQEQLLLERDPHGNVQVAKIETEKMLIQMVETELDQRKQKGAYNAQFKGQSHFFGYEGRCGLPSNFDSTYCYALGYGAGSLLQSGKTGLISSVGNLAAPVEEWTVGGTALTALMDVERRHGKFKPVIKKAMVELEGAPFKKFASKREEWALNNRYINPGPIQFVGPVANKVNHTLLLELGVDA
T3 sequence (P21342 1-616): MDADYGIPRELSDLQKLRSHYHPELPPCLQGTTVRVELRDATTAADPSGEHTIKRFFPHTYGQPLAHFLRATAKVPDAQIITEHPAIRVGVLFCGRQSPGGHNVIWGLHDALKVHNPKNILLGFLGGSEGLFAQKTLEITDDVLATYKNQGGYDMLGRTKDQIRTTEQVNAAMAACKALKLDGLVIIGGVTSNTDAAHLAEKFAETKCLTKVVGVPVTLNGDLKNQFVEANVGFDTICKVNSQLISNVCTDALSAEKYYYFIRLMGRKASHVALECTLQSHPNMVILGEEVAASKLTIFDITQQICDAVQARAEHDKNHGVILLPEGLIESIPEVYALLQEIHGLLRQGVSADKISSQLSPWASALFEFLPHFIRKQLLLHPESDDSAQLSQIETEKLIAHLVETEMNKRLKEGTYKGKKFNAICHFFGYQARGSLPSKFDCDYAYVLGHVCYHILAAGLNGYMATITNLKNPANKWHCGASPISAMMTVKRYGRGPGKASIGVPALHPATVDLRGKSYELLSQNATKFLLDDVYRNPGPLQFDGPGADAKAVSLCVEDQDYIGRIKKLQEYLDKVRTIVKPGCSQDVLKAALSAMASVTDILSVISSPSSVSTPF
Description: The novel compounds of this invention were also tested for their ability to stimulate the enzyme pyrophosphate-dependent 6-phosphofructo-1-kinase ("PPi-PFK"), a growth regulator in plants, using the procedures described below.
Effects on the activity of PPi-PFK were determined using an aldolase-coupled, spectrophotometric assay. The assay mixture contained: 50 mM N-tris(hydroxymethyl)methyl-2-aminoethanesulfonic acid, hydrochloride ("TES-HCl", pH 8.0); 1mM ethylenediaminetetraacetic acid ("EDTA"); 6 mM magnesium chloride; 2.5 mM dithiothreitol; 0.165 mM nicotinamide adenine dinucleotide ("NADH"); 1mM fructose-6-phosphate; 0.04U aldolase; 0.4U triose phosphate isomerase; 1.5U alpha-glycerolphosphate dehydrogenase; 0.1U of partially purified potato tuber 6-phosphofructo-1-kinase; and various concentrations of the test compound, all in a final volume of 1 ml. The mixture was preincubated for 3 minutes at 30°C and then the reaction was initiated with 0.5 mM sodium pyrophosphate. The rate of decrease in absorbance at 340 nm was measured at 30°C with a recording spectrophotometer.

[3] = inhibition of enzyme, pH 7.4, 30°C, reaction initiated with 0.02 mM fructose-1,6-bisphosphate, read-out: FBP IC₅₀

SMILES	EC50 [1]	IC50 (purified rat liver FBP; [3])	EC50 [2]	IC50 (purified rat liver FBP)
O=P(O)(O)OC[C@H]1O[C@](OP(=O)(O)O)(C(F)F)[C@@H](O)[C@@H]1O [1-Deoxy-1,1-difluoro-D-fructofuranose, 2,6-bis (dihydrogen phosphate), β-anomer, disodium salt]	0.15 µM	> 800 µM		
O=P(O)(O)OC[C@H]1O[C@@](OP(=O)(O)O)(C(F)F)[C@@H](O)[C@@H]1O [1-Deoxy-1,1-difluoro-D-fructofuranose, 2,6-bis(dihydrogen phosphate), α-anomer, disodium salt]	0.05 µM	> 800 µM		
O=P(O)(O)OC[C@H]1O[C@@](OP(=O)(O)O)(C(F)F)[C@@H](O)[C@@H]1O [1-Deoxy-1,1-difluoro-D-fructofuranose, 2,6-bis(dihydrogen phosphate), α-anomer, tetrasodium salt]			15 µM	
O=P(O)(O)OC[C@H]1O[C@](OP(=O)(O)O)(C(F)F)[C@@H](O)[C@@H]1O [1-Deoxy-1,1-difluoro-D-fructofuranose, 2,6-bis(dihydrogen phosphate), β-anomer, tetrasodium salt]			0.3 µM	
O=P(O)(O)OC[C@H]1OC(O)(C(F)F)[C@@H](O)[C@@H]1O (stereo partly drawn) [1-Deoxy-1,1-difluoro-D-fructofuranose, 6-(dihydrogen phosphate), sodium salt]	300 µM	450 µM	1000 µM	
O=P(O)(O)OC[C@H]1O[C@@](CO)(COP(=O)(O)O)[C@@H](O)[C@@H]1O [2,5-Anhydro-2-C-(hydroxymethyl)-D-glucitol, 1,6-bis(dihydrogen phosphate)]	6.3 µM		0.4 µM	
O=P(O)(O)OC[C@H]1O[C@](CO)(COP(=O)(O)O)[C@@H](O)[C@@H]1O [2,5-Anhydro-2-C-[(phosphonooxy)methyl]-D-glucitol, 6-(dihydrogen phosphate)]	2 µM		6.6 µM	
O=P(O)(O)OC[C@H]1O[C@H](COP(=O)(O)O)[C@@H](O)[C@@H]1O [2,5-Anhydro-D-mannitol, 1,6-bis(dihydrogen phosphate)]	0.26 µM			2 µM

Now from value to compound, other results behind:

EC50 [1]	IC50 (purified rat liver FBP; [3])	EC50 [2]	SMILES	IC50 (purified rat liver FBP)
2.2 µM	32 µM		O=P(O)(O)OC[C@@H]1O[C@H](COP(=O)(O)O)[C@@H](O)[C@@H]1O [2,5-Anhydro-D-glucitol, 1,6-bis(dihydrogen phosphate)]	
2.1 µM			O=P(O)(O)OC[C@@H](O)[C@H]1O[C@H](COP(=O)(O)O)[C@@H](O)[C@@H]1O [2,5-Anhydro-D-glycero-D-manno-heptitol, 1,7-bis(dihydrogen phosphate)]	
7.2 µM	100 µM		O=P(O)(O)OCC[C@@]1(CO)O[C@H](COP(=O)(O)O)[C@@H](O)[C@@H]1O [3,6-Anhydro-2-deoxy-3-C-(hydroxymethyl)-D-manno-hepitol, 1,7-bis(dihydrogen phosphate)]	
4 µM	230 µM		O=P(O)(O)OCC[C@@H]1O[C@H](COP(=O)(O)O)[C@@H](O)[C@@H]1O [3,6-Anhydro-2-deoxy-D-gluco-heptitol, 1,7-bis(dihydrogen phosphate)]	
0.56 µM	50 µM		O=P(O)(O)OCC[C@H]1O[C@H](COP(=O)(O)O)[C@@H](O)[C@@H]1O [3,6-Anhydro-2-deoxy-D-manno-heptitol, 1,7-bis(dihydrogen phosphate)]	
12 µM			O=P(O)(O)OCCCC1O[C@H](COP(=O)(O)O)[C@@H](O)[C@@H]1O (stereo partly drawn) [4,7-Anhydro-2,3-dideoxy-D-gluco-octitol, 1,8-bis(dihydrogen phosphate), and 4,7-Anhydro-2,3-dideoxy-D-manno-octitol, 1,8-bis(dihydrogen phosphate)]	
0.02 µM	3 µM	0.004 µM	O=P(O)(O)OC[C@H]1O[C@@](CO)(OP(=O)(O)O)[C@@H](O)[C@@H]1O [Beta-D-fructose-2,6-bisphosphate, reference compound]	
